IC50 data for 28 compounds are collected here from patent US10005768B2, “Carboxamide derivatives and use thereof” (Purdue Pharma L.P., priority 2013, dated 2018).

human Nav1.7, sequence (Q15858 other isoform, or with tags, fused parts or gaps): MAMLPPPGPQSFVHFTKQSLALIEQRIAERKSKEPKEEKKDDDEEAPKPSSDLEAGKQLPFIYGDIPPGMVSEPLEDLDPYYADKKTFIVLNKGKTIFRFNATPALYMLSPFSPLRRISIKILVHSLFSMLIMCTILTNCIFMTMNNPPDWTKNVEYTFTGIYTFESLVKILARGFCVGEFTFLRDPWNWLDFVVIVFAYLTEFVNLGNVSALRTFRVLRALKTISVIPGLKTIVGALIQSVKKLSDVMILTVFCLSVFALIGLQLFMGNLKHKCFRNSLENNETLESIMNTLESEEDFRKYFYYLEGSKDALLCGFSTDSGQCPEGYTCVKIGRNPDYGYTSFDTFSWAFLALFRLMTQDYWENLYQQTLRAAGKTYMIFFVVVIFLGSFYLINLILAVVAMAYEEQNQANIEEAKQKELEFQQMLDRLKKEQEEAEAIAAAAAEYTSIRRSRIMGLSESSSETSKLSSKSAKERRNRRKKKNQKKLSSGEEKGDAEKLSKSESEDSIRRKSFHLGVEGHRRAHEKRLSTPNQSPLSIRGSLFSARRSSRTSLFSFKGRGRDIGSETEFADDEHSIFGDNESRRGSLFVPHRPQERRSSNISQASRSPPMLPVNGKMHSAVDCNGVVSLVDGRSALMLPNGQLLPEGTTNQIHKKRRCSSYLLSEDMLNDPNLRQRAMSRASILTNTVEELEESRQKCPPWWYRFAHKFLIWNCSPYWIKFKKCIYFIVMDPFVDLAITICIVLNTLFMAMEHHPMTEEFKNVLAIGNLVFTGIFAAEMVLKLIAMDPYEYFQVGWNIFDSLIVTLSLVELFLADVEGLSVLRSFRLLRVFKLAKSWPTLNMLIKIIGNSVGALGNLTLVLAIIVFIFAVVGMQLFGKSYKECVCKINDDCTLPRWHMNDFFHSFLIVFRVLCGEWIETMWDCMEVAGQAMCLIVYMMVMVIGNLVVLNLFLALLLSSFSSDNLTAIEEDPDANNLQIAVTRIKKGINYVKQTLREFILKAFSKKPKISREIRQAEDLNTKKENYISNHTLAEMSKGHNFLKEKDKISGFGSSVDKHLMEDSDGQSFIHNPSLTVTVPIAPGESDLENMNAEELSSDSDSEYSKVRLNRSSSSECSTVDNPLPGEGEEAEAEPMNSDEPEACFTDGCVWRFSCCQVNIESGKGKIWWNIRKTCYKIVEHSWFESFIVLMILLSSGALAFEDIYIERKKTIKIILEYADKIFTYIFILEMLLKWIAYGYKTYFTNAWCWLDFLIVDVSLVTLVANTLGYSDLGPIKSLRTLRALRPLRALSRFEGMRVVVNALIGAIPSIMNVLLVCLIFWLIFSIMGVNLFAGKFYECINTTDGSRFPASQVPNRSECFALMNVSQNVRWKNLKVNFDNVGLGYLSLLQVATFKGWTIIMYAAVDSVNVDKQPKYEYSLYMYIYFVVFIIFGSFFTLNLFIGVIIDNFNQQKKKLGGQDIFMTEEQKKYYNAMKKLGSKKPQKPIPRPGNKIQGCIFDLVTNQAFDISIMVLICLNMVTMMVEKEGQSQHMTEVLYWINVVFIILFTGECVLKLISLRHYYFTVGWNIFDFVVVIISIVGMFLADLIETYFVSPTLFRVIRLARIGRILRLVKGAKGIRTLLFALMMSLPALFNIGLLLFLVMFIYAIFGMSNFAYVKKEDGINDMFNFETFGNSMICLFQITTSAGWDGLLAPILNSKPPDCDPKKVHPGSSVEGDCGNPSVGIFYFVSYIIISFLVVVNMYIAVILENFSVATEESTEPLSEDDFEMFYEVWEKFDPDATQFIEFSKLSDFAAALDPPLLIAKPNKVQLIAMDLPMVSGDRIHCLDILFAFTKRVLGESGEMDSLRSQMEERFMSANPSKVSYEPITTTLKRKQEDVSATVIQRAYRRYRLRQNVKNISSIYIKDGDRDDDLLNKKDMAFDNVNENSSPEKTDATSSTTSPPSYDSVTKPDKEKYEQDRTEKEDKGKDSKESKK

The assay deals with human Nav1.7 (Homo sapiens (Human), UniProt Q15858). Briefly: FLIPR sodium dye assay (CoroNa Green AM Na+ dye, primary fluorescence assay). It is filed as cell-based. The conditions noted are these: recombinant Nav1.7/HEK293 cells. On the procedure:
In vitro assays were performed in a recombinant cell line expressing cDNA encoding the alpha subunit (Nav1.7, SCN9a, PN1, NE) of human Nav1.7 (Accession No. NM_002977). The cell line was provided by investigators at Yale University (Cummins et al, J. Neurosci. 18(23): 9607-9619 (1998)). For dominant selection of the Nav1.7-expressing clones, the expression plasmid co-expressed the neomycin resistance gene. The cell line was constructed in the human embryonic kidney cell line, HEK293, under the influence of the CMV […] promoter, and stable clones were selected using limiting dilution cloning and antibiotic selection using the neomycin analogue, G418. Recombinant beta and gamma subunits were not introduced into this cell line. Additional cell lines expressing recombinant Nav1.7 cloned from other species can also be used, alone or in combination with various beta subunits, gamma subunits or chaperones.
Unless otherwise noted, cell culture reagents were purchased from Mediatech of Herndon, Va. The recombinant Nav1.7/HEK293 cells were routinely cultured in growth medium consisting of Dulbecco's […] essential medium containing 10% fetal bovine serum (FBS, Hyclone, Thermo Fisher Scientific, Logan, Utah), 100 U/mL penicillin, 100 μg/mL streptomycin, 2-4 mM L-glutamine, and […] G418. For natural, non-recombinant cell lines, the selective antibiotic was omitted, and additional media formulations can be applied as needed.
The final buffer consisted of 20 mM Hepes, pH 7.3, 1.261 mM CaCl2, 0.493 mM MgCl2, 0.407 mM Mg(SO)4, 5.33 mM KCl, 0.441 mM KH2PO4, 137 mM NaCl, 0.336 mM Na2HPO4 and […] D-glucose (Hanks et al., Proc. Soc. Exp. Biol. Med. 71:196 (1949)), and the simple formulation was typically the basic buffer throughout the assay (i.e., all wash and addition steps).
The fluorescence indicator used in the primary fluorescence assay was the cell permeant version of CoroNa™ Green (Invitrogen, Molecular Probes, Eugene, Oreg.), a dye that emits light in the fluorescence range (Harootunian et al., J. Biol. Chem. 264(32):19458-19467 (1989)). The intensity of this emission, but not the wavelength range, is increased when the dye is exposed to Na^+ ions, which it can bind with partial selectivity. Cells expressing Nav1.7 or other sodium channels were loaded with the CoroNa™ Green dye immediately in advance of the fluorescence assay, and then, after agonist stimulation, the mobilization of Na^+ ions was detected as the Na^+ ions flowed from the extracellular fluid into the cytoplasm through the activated sodium channel pores. The dye was stored in the dark as a lyophilized powder, and then an aliquot was dissolved immediately before the cell loading procedure, according to the instructions of the manufacturer, to a stock concentration of 10 mM in DMSO. It was then diluted in the assay buffer to a 4× concentrated working solution, so that the final concentration of dye in the cell loading buffer was 5 μM.
In the fluorescence assays, two agonists were used in combination, namely 1) veratridine; and 2) the venom from the yellow scorpion, Leiurus quinquestriatus hebraeus. Veratridine is an alkaloid small molecule that facilitates the capture of channel openings by inhibiting inactivation, and the scorpion venom is a natural preparation that includes peptide toxins selective for different subsets of voltage-gated sodium channels. These scorpion toxins inhibit the fast inactivation of their cognate target channels. Stock solutions of the agonists were prepared to 40 mM in DMSO (veratridine) and 1 mg/mL in dH2O (scorpion venom), and then diluted to make a 4× or 2× stock (depending on the particular assay) in assay buffer, the final concentration being 100 μM (veratridine) and 10 μg/mL (scorpion venom). Both of the agonists were purchased from Sigma Aldrich, St. Louis, Mo.
Test compounds were dissolved in DMSO to yield 10 mM stock solutions. […]
Take `NC(=O)c1cccc(-c2ccc(Oc3ccc(C(F)(F)F)c(CN4CCNC(=O)C4)c3)cc2)n1` [compound 106, 6-(4-(3-((3-oxopiperazin-1-yl)methyl)-4-(trifluoromethyl)-phenoxy)phenyl)picolinamide]: the IC50 (as a rule, the midpoint of a concentration-inhibition curve) came to 0.455 ± 0.059 µM.

For the compound `CCN(CC)S(=O)(=O)c1cc(C(F)(F)F)ccc1Oc1ccc(-c2cccc([C@H](O)CO)n2)cc1` [compound 113, (S)-2-(4-(6-(1,2-dihydroxyethyl)pyridin-2-yl)phenoxy)-N,N-diethyl-5-(trifluoromethyl)benzenesulfonamide], the half-inhibitory concentration (IC50) amounted to 0.249 ± 0.016 µM.

For `COc1ncccc1-c1cc(C#N)ccc1Oc1ccc(-c2cccc(C(N)=O)n2)cc1` [compound 24, 6-(4-(4-cyano-2-(2-methoxypyridin-3-yl)phenoxy)phenyl)picolinamide], the half-inhibitory concentration (IC50) stood at 0.152 ± 0.031 µM.

Consider `NC(=O)c1cccc(-c2ccc(Oc3ccc(C(F)(F)F)cc3CN3CCCC(O)C3)cc2)n1` (stereo not shown) [compound 51, 6-(4-(2-((3-hydroxypiperidin-1-yl)methyl)-4-(trifluoromethyl)-phenoxy)phenyl)picolinamide], for which the IC50 is 0.566 ± 0.062 µM.

Regarding `NC(=O)c1cccc(-c2ccc(Oc3ccc(C(F)(F)F)cc3C(=O)N3CCCC3)cc2)n1` [compound 160, 6-(4-(2-(pyrrolidine-1-carbonyl)-4-(trifluoromethyl)phenoxy)phenyl)picolinamide], the IC50 was determined as 2.85 ± 0.698 µM.

Take `CCN(C)Cc1cc(C(F)(F)F)ccc1Oc1ccc(-c2cccc(C(N)=O)n2)cc1` [compound 117, 6-(4-(2-((ethyl(methyl)amino)methyl)-4-(trifluoromethyl)phenoxy)phenyl) picolinamide]: the 50% inhibitory concentration (IC50) amounted to 0.066 ± 0.007 µM.

Consider `NC(=O)c1cccc(-c2ccc(Oc3ccc(C(F)(F)F)c(CN4CCCC4)c3)cc2)n1` [compound 56, 6-(4-(3-(pyrrolidin-1-ylmethyl)-4-(trifluoromethyl)phenoxy)phenyl) picolinamide], for which the IC50 is 0.173 ± 0.033 µM.

Regarding `CN(C)CCN(C)Cc1cc(C(F)(F)F)ccc1Oc1ccc(-c2cccc(C(N)=O)n2)cc1` [compound 37, 6-(4-(2-(((2-(dimethylamino)-ethyl)(methyl)amino)methyl)-4-(trifluoromethyl)phenoxy)-phenyl)picolinamide], the IC50 stood at 1.07 ± 0.117 µM.

On to `CN(c1ccccc1)c1cc(-c2cccc(C(N)=O)n2)ccc1Oc1ccc(F)cc1` [compound 92, 6-(4-(4-fluorophenoxy)-3-(methyl(phenyl)amino)phenyl) picolinamide], for which the IC50 is greater than 20 µM.

As for `OC[C@H](O)c1ccnc(-c2ccc(Oc3ccc(C(F)(F)F)cc3CN3CCCC3)cc2)n1` [compound 115, (R)-1-(2-(4-(2-(pyrrolidin-1-ylmethyl)-4-(trifluoromethyl)phenoxy)phenyl)pyrimidin-4-yl)ethane-1,2-diol], the IC50 was found to be 0.455 ± 0.067 µM.

As for `NC(=O)c1cccc(-c2ccc(Oc3ccc(C(F)(F)F)cc3C(O)C[N+](=O)[O-])cc2)n1` (stereo not shown) [compound 63, 6-(4-(2-(1-hydroxy-2-nitroethyl)-4-(trifluoromethyl)phenoxy)-phenyl)picolinamide], the IC50 amounted to 0.337 ± 0.056 µM.

With `NC(=O)c1cccc(-c2ccc(Oc3ccc(C(F)(F)F)cc3CN3CCNC(=O)C3)cc2)n1` [compound 35, 6-(4-(2-((3-oxopiperazin-1-yl)methyl)-4-(trifluoromethyl)-phenoxy)phenyl)picolinamide], the IC50 came out at 0.141 ± 0.022 µM.

For `COc1ccc(-c2cc(C#N)ccc2Oc2ccc(-c3cccc(C(N)=O)n3)cc2)cn1` [compound 20, 6-(4-(4-cyano-2-(6-methoxypyridin-3-yl)phenoxy)phenyl)picolinamide], the 50% inhibitory concentration (IC50) came out at 0.124 ± 0.016 µM.

`N#Cc1ccc(Oc2ccc(-c3cccc(C(N)=O)n3)cc2)c(-c2ccc(N)cc2)c1` [compound 18, 6-(4-((4′-amino-5-cyano-[1,1′-biphenyl]-2-yl)oxy)phenyl)-picolinamide]: the IC50 is 0.426 ± 0.084 µM.

For `CN1CCN(C(=O)c2cc(C(F)(F)F)ccc2Oc2ccc(-c3cccc(C(N)=O)n3)cc2)CC1` [compound 162, 6-(4-(2-(4-methylpiperazine-1-carbonyl)-4-(trifluoromethyl)phenoxy)phenyl)picolinamide], the IC50 amounted to 7.95 ± 0.402 µM.

As for `Cn1cc(-c2cc(C#N)ccc2Oc2ccc(-c3cccc(C(N)=O)n3)cc2)cn1` [compound 21, 6-(4-(4-cyano-2-(1-methyl-1H-pyrazol-4-yl)phenoxy)phenyl)-picolinamide], the concentration for half-maximal inhibition (IC50) came out at 0.564 ± 0.035 µM.

Take `CN(C)C(C(N)=O)c1cc(C(F)(F)F)ccc1Oc1ccc(-c2cccc(C(N)=O)n2)cc1` (stereo not shown) [compound 84, 6-(4-(2-(2-amino-1-(dimethylamino)-2-oxoethyl)-4-(trifluoromethyl)phenoxy)phenyl) picolinamide]: the IC50 fell in the range of 10 to 20 µM.

As for `CN(CCO)C(=O)c1cc(C(F)(F)F)ccc1Oc1ccc(-c2cccc(C(N)=O)n2)cc1` [compound 161, 6-(4-(2-((2-hydroxyethyl)-(methyl)carbamoyl)-4-(trifluoromethyl)phenoxy)phenyl) picolinamide], the IC50 was greater than 20 µM.

As for `NC(=O)c1cccc(-c2ccc(Oc3ccc(C(F)(F)F)c(CN4CCC4)c3)cc2)n1` [compound 53, 6-(4-(3-(azetidin-1-ylmethyl)-4-(trifluoromethyl)phenoxy)phenyl) picolinamide], the IC50 was 0.384 ± 0.106 µM.

For the compound `NC(=O)c1cccc(-c2ccc(Oc3ccc(C(F)(F)F)c(CN4CC(N)C4)c3)cc2)n1` [compound 62, 6-(4-(3-((3-aminoazetidin-1-yl)methyl)-4-(trifluoromethyl)phenoxy)phenyl) picolinamide], the IC50 turned out to be 0.31 ± 0.066 µM.

For `CCN(CCN(C)C)Cc1cc(C(F)(F)F)ccc1Oc1ccc(-c2cccc(C(N)=O)n2)cc1` [compound 120, 6-(4-(2-(((2-(dimethylamino)ethyl)(ethyl)amino)methyl)-4-(trifluoromethyl)phenoxy)phenyl) picolinamide], the IC50 came out at 0.578 ± 0.098 µM.

Consider `NC(=O)c1cccc(-c2ccc(Oc3ccc(C(F)(F)F)cc3/C=C3\SC(=O)NC3=O)cc2)n1` [compound 155, (Z)-6-(4-(2-((2,4-dioxothiazolidin-5-ylidene)methyl)-4-(trifluoromethyl)phenoxy)phenyl) picolinamide], for which the IC50 is greater than 20 µM.

`NC(=O)c1cccc(-c2ccc(Oc3ccc(C(F)(F)F)cc3C(O)C(=O)N3CCCC3)cc2)n1` (stereo not shown) [compound 158, 6-(4-(2-(1-hydroxy-2-oxo-2-(pyrrolidin-1-yl)ethyl)-4-(trifluoromethyl)phenoxy)phenyl) picolinamide]: the IC50 turned out to be 0.214 ± 0.029 µM.

Take `CC(c1cc(C(F)(F)F)ccc1Oc1ccc(-c2cccc(C(N)=O)n2)cc1)N1CCCC1` (stereo not shown) [compound 58, 6-(4-(2-(1-(pyrrolidin-1-yl)ethyl)-4-(trifluoromethyl)phenoxy)-phenyl)picolinamide]: the IC50 amounted to 0.231 ± 0.008 µM.

For the compound `NC(=O)c1cccc(-c2ccc(Oc3ccc(C(F)(F)F)cc3-c3ccncc3)cc2)n1` [compound 28, 6-(4-(2-(pyridin-4-yl)-4-(trifluoromethyl)phenoxy)phenyl) picolinamide], the IC50 turned out to be 0.101 ± 0.021 µM.

With `NC(=O)c1cccc(-c2ccc(Oc3ccc(C(F)(F)F)cc3CN3CCC(N)C3)cc2)n1` (stereo not shown) [compound 60, 6-(4-(2-((3-aminopyrrolidin-1-yl)methyl)-4-(trifluoromethyl)-phenoxy)phenyl)picolinamide], the IC50 turned out to be 1.85 ± 0.361 µM.

On to `NC(=O)c1cccc(-c2ccc(Oc3ccc(F)cc3)cc2Cl)n1` [compound 86, 6-(2-chloro-4-(4-fluorophenoxy)-phenyl)picolinamide], for which the IC50 stood at 0.49 ± 0.041 µM.

On to `CN(Cc1cc(-c2cccc(C(N)=O)n2)ccc1Oc1ccc(F)cc1)c1ccccc1` [compound 102, 6-(4-(4-fluorophenoxy)-3-((methyl(phenyl)amino)methyl)phenyl)picolinamide], for which the IC50 was determined as 1.3 ± 0.126 µM.
